“Also recorded” adds a separate entry of the source. Where a SMILES comes first, the peptide text is derived from it. The star is where a group is joined. Cbz = O=C(OCc1ccccc1)*; CHN2 = [N-]=[N+]=C*; tBu = CC(C)(C)*
Tests used:
[1] = system: G protein from HeLa cell virions; assay: Virion-associated G protein of rgRSV grown in HeLa cells with cathepsin L inhibitor (immunoblot); type: cell-based; conditions: inhibitor beginning at 8 hpi; virus collected 72 hpi; G migrated at 90 kDa
Procedure: (§1) At 72 hpi the medium was collected and virus pelleted through a 35% sucrose cushion to partially purify and concentrate it. The virus pellet was resuspended and half was further purified by linear sucrose density gradient. The G protein from these purified virions was analyzed by immunoblot. The G protein from HeLa cell virions migrated at 90 kDa and was not affected by the inhibitor (FIG. 5A). […] FIG. 5A was generated by inoculating HeLa or Vero cells for 2 h and treating them with cathepsin L inhibitor or DMSO beginning at 8 hpi.
The effect of protease inhibitors on the infectivity of RSV produced by Vero and HeLa cells was tested by inoculating cells and 2 hpi media was changed. At 7 hpi medium containing […] cathepsin L inhibitor III (Calbiochem, San Diego, Calif.) or an equal volume of the vehicle, DMSO was added to the cells. 72 hpi virus was harvested as described above, but instead of aliquoting and snap freezing, 15 ml of virus-containing medium was layered on top of 15 ml of 35% sucrose cushion in 1× Hanks Balanced Salt Solution, with calcium and magnesium, and centrifuged overnight at 4° C. and 26,000×g in an F14-14×50cy rotor for Sorvall Lynx 6000 (Thermo Fisher) to remove the drug and partially purify the virus. […] Fractions containing virus were separated by SDS-PAGE and G protein detected by immunoblot using a mAb, L9 (Edward Walsh, University of Rochester).

[2] = system: RSV G protein cleavage in Vero cells; assay: Cell-surface RSV G protein cleavage in rgRSV-infected cells treated with protease inhibitors (biotinylation, immunoblot with mAb L9); type: cell-based; conditions: RSV-infected HeLa and Vero cells; 0.1 to 100 μM at 6 hpi; 24 hpi
Procedure: To elucidate the class of protease responsible for G protein cleavage in Vero cells, cells were treated with increasing concentrations of protease inhibitors after inoculating with recombinant green fluorescent protein expressing RSV (rgRSV). Cells were incubated with rgRSV for 2 h with tipping at 37° C. before replacing inoculum with fresh cell culture medium. Drugs were added at different times post infection. In each case, uninfected, no drug, and vehicle (at the highest concentration used) were included in all experiments as controls. In all experiments at 24 hpi, cell surface proteins were biotinylated, cells lysed and equivalent amounts of protein from each sample were mixed with streptavidin beads.
Aprotinin, a serine protease inhibitor, leupeptin, a serine/cysteine protease inhibitor; or E-64, a cysteine protease inhibitor were added to the cell culture media (3.125 to 50 μg/ml) from 2-24 hpi. The most likely proteins to be incorporated into the virions are cell surface proteins, so the cell surfaced was biotinylated, proteins isolated from lysed cells with streptavidin beads, and immunobloted with L9, a mAb to the G protein, as a probe (FIG. 1A). In the untreated and vehicle treated samples most of the cell surface G protein was cleaved (˜55 kDa), leaving only a small portion of full length (˜90 kDa) G protein. […] Since both leupeptin and E64 block the activity of cysteine proteases, the protease responsible for cleavage of the G protein in Vero cells is a cysteine protease.
To narrow the field of cysteine proteases, cells were treated at 6 hpi with a more specific cysteine protease inhibitor, ALLM (0.1 to 100 μM).
RSV-infected HeLa and Vero cells were treated with a cathepsin B inhibitor, CA-074 (0.1 to 100 μM), or a cathepsin L inhibitor, cathepsin L inhibitor III (0.1 to 100 μM) 6 hpi.
Cathepsin L is a protease present primarily in the interior of the lysosome and is optimally active at acidic pH. Vero cells expressing the G protein were treated with chloroquine to raise the pH of the lysosome. […] To generate FIG. 4C, cells were inoculated with RSV or mock inoculated. 6 hpi the cells were treated with increasing concentrations of chloroquine. 24 hpi cells were biotinylated and G protein assayed
HeLa and Vero cells were rgRSV (MOI: 1) or mock inoculated. 2 hpi the inoculum was replaced with fresh complete medium, and 4 hpi cells the medium was changed again to complete medium with 2-fold dilutions of these protease inhibitors (Sigma-Aldrich, St. Louis, Mo.), dissolved in water: Aprotinin (3.125 to 50 μg/ml); Leupeptin (6.25 to 100 μg/ml); E-64 (6.25 to 100 μg/ml); or equal volumes of water in medium. In other experiments, cells were treated at 6 hpi with: 10-fold dilutions (0.1 to 100 μM) of: Cathepsin inhibitor I (Calbiochem); ALLM (Santa Cruz, Dallas, Tex.); Chloroquine diphosphate salt (Sigma Aldrich) or equivalent volumes of vehicle (water); CA-074 (Calbiochem); Cathepsin L inhibitor III (Calbiochem); or an equal volume of vehicle (DMSO) in medium.
At 24 hpi cells were biotinylated with Ez-link Sulfo-NHS-LC-Biotin (Thermo Fisher). Cells were lysed with lysis buffer containing 150 mM NaCl, 1% Triton X-100, 50 mM Tris, 0.1% SDS, and 1× Halt protease cocktail inhibitor (Thermo Fisher). Proteins were quantified using BCA protein assay kit (Pierce, Waltham, Mass.), and equal amounts of protein were added to high capacity streptavidin agarose beads (Thermo Fisher). The mixtures were rotated for 1 h at 4° C., the beads were pelleted and washed with lysis buffer (without protease cocktail inhibitor), NuPage LDS sample buffer was added, and boiled for 5 min, separated by NuPAGE Novex 4-12% bis-tris protein gels and transferred to nitrocellulose in an iBlot transfer stack, using the iBlot transferring system (Life Technologies) for immunoblot analysis. […]

HAE cultures = assay: Infection of HAE cultures by rgRSV produced in the presence of cathepsin L inhibitor; type: cell-based, human
Procedure: as §1
The remaining virus that had been partially purified through the 35% sucrose cushion was titrated on HeLa cells. Equivalent amounts of infectious virus, determined on HeLa cells, were used to inoculate HAE cultures. […] For FIG. 5B, equivalent amount of infectious virus, determined by titration on HeLa cells, was used to inoculate HAE cultures. 48 hpi green cells were counted. *p<0.0001 (unpaired, 2-tailed t-test).
Primary, well-differentiated human airway epithelial (HAE) cultures were generated from human airway tissue (Fulcher et al., Methods Mol Med (2005) 107:183-206). For infection experiments they were grown on collagen coated Trans-well inserts (Corning Incorporated). […]
(§2) The effect of protease inhibitors on the infectivity of RSV produced by Vero and HeLa cells was tested by inoculating cells and 2 hpi media was changed. […] Fractions containing virus were separated by SDS-PAGE and G protein detected by immunoblot using a mAb, L9 (Edward Walsh, University of Rochester).
The apical surface of well-differentiated HAE cultures in Trans-wells was washed with DPBS for 2 h and the basal medium changed before equivalent pfu (titrated in HeLa cells), between 2,000 and 10,000 pfu, depending on the HAE culture source, were diluted in HAE medium and added to the apical chamber of the Trans-well. […] Fluorescent (green) cells were visualized with an EVOS fl inverted fluorescence microscope (Life Technologies) and counted in HeLa cultures at 24 hpi and on HAE cultures at 48 hpi. Three or more experiments were pooled and analyzed together.

[3] = system: G protein from Vero cell virions; assay: Virion-associated G protein of rgRSV grown in Vero cells with cathepsin L inhibitor (immunoblot); type: cell-based; conditions: for virion-associated G protein cleavage: rgRSV grown in Vero cells, 0.5 μM inhibitor at 7 hpi, harvested 72 hpi
Procedure: To verify that cathepsin L is sufficient to cleave the G protein, rgRSV was grown in Vero cells in the presence of cathepsin L inhibitor or vehicle. Viruses were harvested and pelleted through a 35% sucrose cushion to separate them from cathepsin L inhibitor. Viruses were resuspended in buffer with pH5.5 and treated with cathepsin L or vehicle. […] Vero cells were inoculated with rgRSV or mock inoculated for 2 h, at which time the inoculum was replaced with fresh medium. Vero cells were treated with medium containing 0.5 μM cathepsin L inhibitor III at 7 hpi. 72 hpi the medium was harvested and virus was pelleted through a 35% sucrose cushion. The pelleted Vero-derived (VeD) virus was resuspended in buffer (pH5.5) containing 50 ng/d cathepsin L or vehicle.
as §1
as §2, with “changed. At 7 hpi medium containing […] cathepsin L inhibitor III (Calbiochem, San Diego, Calif.) or an equal volume of the vehicle, DMSO was added to the cells.” for “changed.”

## CC(C)(C)Oc1ccc(C[C@H](NC(=O)[C@H](Cc2ccccc2)NC(=O)OCc2ccccc2)C(=O)C=[N+]=[N-])cc1 [cathepsin L inhibitor III] (Cbz-Phe-Tyr(tBu)-CHN2)
[1]
  migration of G protein from HeLa cell virions: not affected
[2]
  G protein cleavage (cell surface G protein): prevention of cleavage; also recorded: almost completely prevented G protein cleavage
HAE cultures; inhibitor present during viral production
  ability of Vero-derived virus to infect HAE cells: increasing the ability of Vero-derived virus to infect HAE cells
HAE cultures; inhibitor present during virus production in HeLa, green cells counted 48 hpi
  effect on ability of HeLa grown virus to infect HAE cultures: little, if any, effect
HAE cultures; inhibitor present during virus production in Vero, green cells counted 48 hpi, vs DMSO
  increase in ability of Vero-grown virus to infect HAE cells: 7 fold
[3]; inhibitor beginning at 8 hpi, virus collected 72 hpi, without inhibitor primarily 55 kDa
  migration of G protein from Vero cell virions: converted to 90 kDa
[3]
  virion-associated G protein cleavage: cleavage is prevented
[3]; listed as cathepsin L inhibitor
  virion-associated G protein cleavage: cleavage prevention

From US10758607B2, “Respiratory syncytial virus having cleavage-resistant G protein and related materials and methods” (The Research Institute at Nationwide Children's Hospital, priority 2015, dated 2020)
